The values that follow come from ChEMBL document CHEMBL1201862, “PubChem BioAssay data set” (2004).

SMILES strings stand for the structures.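 Grown in 96-well plates, cells were treated for 48 hours with each compound at five concentrations. Insufficient inhibition: endpoint recorded as highest concentration tested. Abbreviation: GI50, concentration required for 50% inhibition of growth.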 Active and inactive are the calls of the source. Rule as the data show it: active = GI50 up to about 1.1 µM and inactive = higher. Where a SMILES comes first, the peptide text is derived from it. The star is where a group is joined. Cbz = O=C(OCc1ccccc1)* A value given as a limit tells only on which side of the number the result lay.

Test systems include OVCAR-5; HCT-116; IGROV-1; SW-620; ACHN; KM12; LOX IMVI; HOP-62; HT-29; SK-MEL-28; UACC-257; SR; NCI/ADR-RES; MDA-N; DU-145; HL-60; OVCAR-8; TK-10; NCI-H522; A549.
Assay in all cases: inhibition of tumour cell growth, NCI panel, 48 h

As to `O=C(CN1CCOCC1)c1ccc2c(c1)oc(=O)n2CCN1CCCCC1`, the GI50 in the assay on OVCAR-5, with HCT-116, in the assay with IGROV-1, with SW-620, with ACHN and in the assay on KM12 was > 100 µM (inactive) throughout. Besides, the GI50 in the assay with LOX IMVI, in the assay with HOP-62, in the assay with HT-29, in the assay on SK-MEL-28, in the assay with UACC-257 and in the assay on SR was > 100 µM (inactive) in each case. Also, the GI50 in the assay on NCI/ADR-RES, in the assay on MDA-N, in the assay with DU-145, in the assay with HL-60, in the assay with OVCAR-8 and in the assay on TK-10 was > 100 µM (inactive) throughout.

As for `O=C1c2ccccc2-c2ccc(/N=[N+](/[O-])c3ccc4c(c3)C(=O)c3ccccc3-4)cc21`, the GI50 in the assay on OVCAR-5, with HCT-116, in the assay on NCI-H522, in the assay on IGROV-1, in the assay on SW-620 and in the assay with ACHN was > 100 µM (inactive) throughout. Besides, the GI50 was > 100 µM (inactive) with KM12; > 100 µM (inactive) in the assay on LOX IMVI; 71.4 µM (inactive) in the assay with HOP-62; > 100 µM (inactive) in the assay with HT-29; > 100 µM (inactive) in the assay on SK-MEL-28; > 100 µM (inactive) with UACC-257. Further, the GI50 in the assay on NCI/ADR-RES, in the assay on A549, in the assay on MDA-N, in the assay with DU-145, in the assay on HL-60 and in the assay with OVCAR-8 was > 100 µM (inactive) in each case. Further, the GI50 with TK-10 was > 100 µM (inactive).

On to `O=C(c1cccs1)N(C(=S)OCc1ccccn1)c1ccccc1`, for which the GI50 with OVCAR-5 is 23.4 µM (inactive); with HCT-116 it was 63.5 µM (inactive); in the assay on IGROV-1, 28.8 µM (inactive); with SW-620 it was 92 µM (inactive); in the assay on ACHN, 50.6 µM (inactive); in the assay on KM12, 84.9 µM (inactive). The GI50 with LOX IMVI is 96.4 µM (inactive); with HT-29 it was 33.2 µM (inactive); in the assay on SK-MEL-28 it was > 100 µM (inactive); with UACC-257, > 100 µM (inactive); in the assay on SR it was > 100 µM (inactive); with NCI/ADR-RES it was 35.2 µM (inactive). Moreover, the GI50 was > 100 µM (inactive) in the assay on MDA-N; 69.2 µM (inactive) in the assay on DU-145; 38.4 µM (inactive) in the assay on HL-60; 56.5 µM (inactive) with OVCAR-8; > 100 µM (inactive) in the assay with TK-10.

Consider `CCOC(=O)C(=O)CC(=O)C1=C(c2ccccc2OC)CC(c2cccs2)=CC1=O`, for which the GI50 was > 100 µM (inactive) in the assay on OVCAR-5; 31.7 µM (inactive) in the assay with HCT-116; 20.9 µM (inactive) in the assay on NCI-H522; 15.3 µM (inactive) in the assay on IGROV-1; 72.3 µM (inactive) in the assay on SW-620; > 100 µM (inactive) with ACHN. For the same compound, the GI50 was 34.3 µM (inactive) in the assay with KM12; 83.9 µM (inactive) in the assay with LOX IMVI; 45.4 µM (inactive) in the assay on HOP-62; 50.2 µM (inactive) in the assay on HT-29; > 100 µM (inactive) with SK-MEL-28; > 100 µM (inactive) in the assay on UACC-257. The GI50 with NCI/ADR-RES is 46 µM (inactive); in the assay on A549 it was 43.5 µM (inactive); with MDA-N it was 36.1 µM (inactive); in the assay with DU-145, > 100 µM (inactive); with HL-60 it was 55 µM (inactive); with OVCAR-8, > 100 µM (inactive). Besides, in the assay with TK-10, the GI50 was > 100 µM (inactive).

With `COc1ccc(NC(=O)c2cc(NC(=O)/C=C/c3ccccc3)c(OC)c(OC)c2)cc1`, the GI50 was 40.7 µM (inactive) with OVCAR-5; 2.48 µM (inactive) with HCT-116; 6.81 µM (inactive) in the assay on SW-620; 4.5 µM (inactive) in the assay on ACHN; 3.83 µM (inactive) in the assay on KM12; 4.73 µM (inactive) in the assay on LOX IMVI. Also, the GI50 was 31.5 µM (inactive) in the assay on HOP-62; 8.41 µM (inactive) in the assay on HT-29; 20.4 µM (inactive) in the assay on SK-MEL-28; 44.1 µM (inactive) with UACC-257; 4.03 µM (inactive) in the assay on SR; 28.5 µM (inactive) in the assay on NCI/ADR-RES. Moreover, the GI50 is 7.55 µM (inactive) in the assay with A549; 3.1 µM (inactive) in the assay on MDA-N; 16.3 µM (inactive) in the assay on DU-145; 6.19 µM (inactive) in the assay with HL-60; > 100 µM (inactive) in the assay on TK-10.

With `CCOC(=O)CNC(=O)C(C)NC(=O)C(NC(=O)OCc1ccccc1)C(C)C` (stereo not drawn) (Cbz-Val-Ala-Gly-OEt; configuration not given here), the GI50 in the assay on OVCAR-5 is > 100 µM (inactive); with HCT-116, > 100 µM (inactive); in the assay on NCI-H522, 97.5 µM (inactive); in the assay on IGROV-1, > 100 µM (inactive); in the assay on SW-620, > 100 µM (inactive); in the assay on ACHN it was > 100 µM (inactive). Further, the GI50 in the assay on KM12, with HOP-62, in the assay on HT-29, in the assay on SK-MEL-28, with UACC-257 and in the assay with SR was > 100 µM (inactive) each time. The GI50 in the assay with NCI/ADR-RES, in the assay with A549, in the assay on MDA-N, with DU-145, in the assay on OVCAR-8 and in the assay on TK-10 was > 100 µM (inactive) throughout.

For `CNC(=O)c1ccccc1[S+]1c2cccc3cccc(c23)C(=O)N1C` (stereo not drawn), the GI50 in the assay on OVCAR-5, in the assay on HCT-116, in the assay on NCI-H522, with IGROV-1, in the assay on SW-620 and in the assay on ACHN was > 100 µM (inactive) throughout. For the same compound, the GI50 with KM12, in the assay with LOX IMVI, in the assay on HOP-62, in the assay with HT-29, in the assay on SK-MEL-28 and in the assay on UACC-257 was > 100 µM (inactive) in each case. The GI50 in the assay with NCI/ADR-RES, in the assay with A549, with MDA-N, in the assay with DU-145, in the assay with HL-60 and in the assay on OVCAR-8 was > 100 µM (inactive) each time. For the same compound, the GI50 in the assay with TK-10 is > 100 µM (inactive).

Consider `COc1cc(NCc2ccc3nc(N)nc(N)c3c2C)cc(OC)c1OC`, for which the GI50 was 1.85 µM (inactive) with OVCAR-5; 0.0352 µM (active) in the assay on HCT-116; 0.0316 µM (active) in the assay with IGROV-1; 0.025 µM (active) with SW-620; 0.000395 µM (active) in the assay on ACHN; 0.0478 µM (active) in the assay with KM12. The GI50 with LOX IMVI was 0.025 µM (active); in the assay on HOP-62 it was 0.0286 µM (active); in the assay on HT-29 it was 0.0267 µM (active); in the assay with SK-MEL-28, 0.313 µM (active); in the assay with UACC-257, 0.14 µM (active); in the assay with SR it was 0.000359 µM (active). Further, the GI50 is 2.74 µM (inactive) in the assay on NCI/ADR-RES; 0.0407 µM (active) in the assay on A549; 0.0002 µM (active) with MDA-N; 0.00102 µM (active) in the assay with DU-145; 0.043 µM (active) in the assay with HL-60; 0.0262 µM (active) in the assay with OVCAR-8. In addition, the GI50 with TK-10 was 0.0105 µM (active).

`O=[N+]([O-])c1ccc(N2N=C(c3ccc4ccccc4c3O)CC2c2ccc(Cl)cc2Cl)c([N+](=O)[O-])c1` (stereo not drawn): the GI50 was 37.2 µM (inactive) in the assay with OVCAR-5; 23.6 µM (inactive) with HCT-116; 28 µM (inactive) with NCI-H522; 23.3 µM (inactive) with IGROV-1; 37.5 µM (inactive) in the assay with SW-620; 25.2 µM (inactive) in the assay on ACHN. For the same compound, the GI50 in the assay on KM12 is 29 µM (inactive); with LOX IMVI, 41.5 µM (inactive); in the assay on HOP-62, 38.1 µM (inactive); in the assay on HT-29, 40.1 µM (inactive); in the assay with SK-MEL-28 it was 65.8 µM (inactive); in the assay on UACC-257, 48.9 µM (inactive). The GI50 in the assay with NCI/ADR-RES is 28.6 µM (inactive); in the assay with A549, 28.5 µM (inactive); with MDA-N, 40.9 µM (inactive); with DU-145, 55.5 µM (inactive); with HL-60, 7.59 µM (inactive); in the assay on OVCAR-8, 33.3 µM (inactive). Moreover, in the assay with TK-10, the GI50 was 63 µM (inactive).

For `CCOC(=O)N1CCC2(CC1)CC(=O)N(Nc1ccccc1)C2=O`, the GI50 with OVCAR-5 was 91.6 µM (inactive); with HCT-116 it was > 100 µM (inactive); with IGROV-1, 79.8 µM (inactive); in the assay on SW-620 it was > 100 µM (inactive); with ACHN it was 9.71 µM (inactive); in the assay on KM12 it was 92.7 µM (inactive). The GI50 in the assay with LOX IMVI is 98.4 µM (inactive); in the assay with HOP-62, > 100 µM (inactive); in the assay with HT-29, 90.2 µM (inactive); with SK-MEL-28, 74.3 µM (inactive); in the assay on UACC-257, > 100 µM (inactive); in the assay on SR, 32.1 µM (inactive). The GI50 in the assay with NCI/ADR-RES is > 100 µM (inactive); with A549, > 100 µM (inactive); in the assay on MDA-N, 78.3 µM (inactive); in the assay with DU-145 it was > 100 µM (inactive); in the assay on HL-60, 28.9 µM (inactive); with OVCAR-8 it was > 100 µM (inactive). Besides, the GI50 in the assay on TK-10 was > 100 µM (inactive).

For `Nc1ncnc2c1nnn2C1CCC(CP(=O)(O)O)C1` (stereo not drawn), the GI50 with OVCAR-5, in the assay with HCT-116, with IGROV-1, with SW-620, with ACHN and in the assay with KM12 was > 100 µM (inactive) in each case. Moreover, the GI50 in the assay on LOX IMVI, with HOP-62, in the assay with HT-29, with SK-MEL-28, in the assay on UACC-257 and in the assay on SR was > 100 µM (inactive) in each case. Besides, the GI50 in the assay on NCI/ADR-RES, with A549, in the assay with MDA-N, with DU-145, in the assay on HL-60 and with OVCAR-8 was > 100 µM (inactive) throughout. Besides, the GI50 in the assay with TK-10 is > 100 µM (inactive).
